# Activity calls are given as the source filed them.
# What was measured:
# [1] = target: T1, Carboxy-terminal domain RNA polymerase II polypeptide A small phosphatase 1 (Homo sapiens, UniProt Q9GZU7); experiment: inhibitors of CTDSP1, concentration-response testing, biochemical assay, absorbance-based, actives from ultra-high-throughput screening (AID 540297); type: functional
# T1 sequence (Q9GZU7 whole entry): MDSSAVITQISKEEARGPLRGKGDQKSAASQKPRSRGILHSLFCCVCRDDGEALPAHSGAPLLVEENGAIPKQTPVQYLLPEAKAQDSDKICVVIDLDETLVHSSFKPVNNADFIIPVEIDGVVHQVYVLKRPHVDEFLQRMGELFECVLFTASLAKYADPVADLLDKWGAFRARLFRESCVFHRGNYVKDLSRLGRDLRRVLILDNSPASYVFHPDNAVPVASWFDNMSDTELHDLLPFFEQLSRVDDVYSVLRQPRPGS
# [2] = test system: Streptococcus sp. 'group A'; experiment: growth inhibition of control SK(-) GAS strain, dose response, counter-screen for streptokinase expression inhibitor project, luminescence, kanamycin, BacTiterGlo, confirmation (AID 1900); type: functional, organism-based
# Streptokinase A = target: T2, Streptokinase A (Streptococcus pyogenes serotype M1, UniProt P10520); experiment: S. pyogenes streptokinase expression inhibitors, potency, dose response, plasminogen activation absorbance, OD405 (AID 1914); type: functional, Streptococcus pyogenes M1 GAS;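 note: secreted streptokinase activity via plasminogen activation per viability signal from cell pellet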
# T2 sequence (P10520 whole entry): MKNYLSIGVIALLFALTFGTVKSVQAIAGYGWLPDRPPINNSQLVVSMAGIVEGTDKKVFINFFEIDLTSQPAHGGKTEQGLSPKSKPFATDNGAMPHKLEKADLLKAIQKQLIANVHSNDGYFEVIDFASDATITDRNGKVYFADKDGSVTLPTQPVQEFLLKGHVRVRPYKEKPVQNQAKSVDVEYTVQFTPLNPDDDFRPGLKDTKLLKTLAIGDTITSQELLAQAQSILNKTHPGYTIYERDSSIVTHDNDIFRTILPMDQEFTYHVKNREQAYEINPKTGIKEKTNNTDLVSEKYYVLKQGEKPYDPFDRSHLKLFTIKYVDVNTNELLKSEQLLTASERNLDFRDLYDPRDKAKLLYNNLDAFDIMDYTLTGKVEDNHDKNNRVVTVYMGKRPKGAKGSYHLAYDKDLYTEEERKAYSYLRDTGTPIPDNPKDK
# Streptococcus = experiment: Group A Streptococcus viability loss, dose response, counter-screen for streptokinase expression inhibitor project, luminescence, BacTiterGlo (AID 1915); type: functional, organism-based;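 note: potency for reduction of bacterial viability or growth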
# BJ [3] = experiment: cytotoxicity toward BJ-TERT fibroblasts, dose response, cell-based, RAS-independent, luminescence (AID 1933); type: functional; conditions: Homo sapiens
# BJ [4] = experiment: cells; type: functional, cell-based; conditions: Homo sapiens
# BJ [5] = experiment: cytotoxicity toward BJ-TERT-LT-ST fibroblasts, dose response, cell-based, RAS-independent, luminescence (AID 1935); type: functional; conditions: Homo sapiens;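 note: BJ fibroblasts immortalized with TERT plus LT and ST oncogenes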
# [6] = cytotoxicity toward DRD oncogenic fibroblasts, dose response, cell-based, non-viral oncogenic, luminescence (AID 1934); type: functional; conditions: Homo sapiens
# BJ [7] = experiment: cytotoxicity toward Ras-transformed BJeLR fibroblasts, dose response, cell-based, alamar blue fluorescence, cherrypicked samples (AID 2631); type: functional; conditions: Homo sapiens;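 note: confirmatory dose-response assay in RAS-dependent BJ fibroblasts engineered with TERT, LT and ST, with cytotoxicity read by fluorescence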
# [8] = Shn3 3'UTR reporter inhibitors, dose response, cell-based, Clone20 osteoblasts, firefly luciferase, cherry-picked (AID 624132); type: functional;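 note: firefly luciferase luminescence from reporter carrying the Shn3 3'UTR in osteoblasts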
# [9] = control 3'UTR Renilla luciferase suppression, dose response, counter-screen for Shn3 inhibitor project, cell-based, Clone20-Shn3RL, cherry-picked (AID 624133); type: functional
# [10] = cytotoxicity in HEK-293T cells, dose response, cytotoxicity control for TCR NF-kB inhibitor project, luminescence, T-cell screen hits (AID 489026); type: functional, cell-based;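 note: cells exposed to compound about 14 hours before the viability readout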
# Cytochrome P450 2C19 = Cytochrome P450 2C19 (Homo sapiens, UniProt P33261); experiment: Cytochrome panel assay with activity outcomes. Panel member name: p450-cyp2c19 Compounds with AC50 equal or less than 10 uM are considered active; type: functional
# Cytochrome P450 2C19, sequence (P33261 whole entry): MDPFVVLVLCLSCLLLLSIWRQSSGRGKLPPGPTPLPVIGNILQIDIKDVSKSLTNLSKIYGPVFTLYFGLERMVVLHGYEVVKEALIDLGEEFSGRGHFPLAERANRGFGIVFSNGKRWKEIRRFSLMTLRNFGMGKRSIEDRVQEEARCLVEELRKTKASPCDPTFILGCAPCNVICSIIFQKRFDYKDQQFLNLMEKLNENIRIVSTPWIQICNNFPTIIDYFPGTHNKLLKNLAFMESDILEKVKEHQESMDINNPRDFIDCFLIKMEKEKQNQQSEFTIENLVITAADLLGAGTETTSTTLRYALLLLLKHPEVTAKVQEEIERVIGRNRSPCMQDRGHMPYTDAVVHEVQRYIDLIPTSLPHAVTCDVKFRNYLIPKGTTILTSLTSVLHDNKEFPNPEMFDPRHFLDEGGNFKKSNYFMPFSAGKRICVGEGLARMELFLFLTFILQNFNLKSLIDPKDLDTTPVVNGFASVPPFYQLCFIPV
# Cytochrome P450 3A4 = Cytochrome P450 3A4 (Homo sapiens, UniProt P08684);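 note: CYP3A4 tested as one member of a cytochrome P450 panel screen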
# Cytochrome P450 3A4, sequence (P08684 whole entry): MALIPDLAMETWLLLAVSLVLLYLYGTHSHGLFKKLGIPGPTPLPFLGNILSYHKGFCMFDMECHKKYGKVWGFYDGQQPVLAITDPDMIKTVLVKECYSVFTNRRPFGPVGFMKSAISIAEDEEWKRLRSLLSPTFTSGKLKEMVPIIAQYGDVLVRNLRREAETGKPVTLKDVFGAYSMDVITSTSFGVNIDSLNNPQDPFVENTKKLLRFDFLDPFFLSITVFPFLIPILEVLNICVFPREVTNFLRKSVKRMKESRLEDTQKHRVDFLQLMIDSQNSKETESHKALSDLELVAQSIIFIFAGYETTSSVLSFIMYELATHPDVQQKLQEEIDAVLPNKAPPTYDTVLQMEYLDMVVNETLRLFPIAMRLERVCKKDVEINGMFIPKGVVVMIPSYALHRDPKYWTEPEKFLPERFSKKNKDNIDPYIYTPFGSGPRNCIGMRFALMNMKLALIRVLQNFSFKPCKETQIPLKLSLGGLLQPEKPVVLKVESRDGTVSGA
# Cytochrome P450 2C9 = Cytochrome P450 2C9 (Homo sapiens, UniProt P11712)
# Cytochrome P450 2C9, sequence (P11712 whole entry): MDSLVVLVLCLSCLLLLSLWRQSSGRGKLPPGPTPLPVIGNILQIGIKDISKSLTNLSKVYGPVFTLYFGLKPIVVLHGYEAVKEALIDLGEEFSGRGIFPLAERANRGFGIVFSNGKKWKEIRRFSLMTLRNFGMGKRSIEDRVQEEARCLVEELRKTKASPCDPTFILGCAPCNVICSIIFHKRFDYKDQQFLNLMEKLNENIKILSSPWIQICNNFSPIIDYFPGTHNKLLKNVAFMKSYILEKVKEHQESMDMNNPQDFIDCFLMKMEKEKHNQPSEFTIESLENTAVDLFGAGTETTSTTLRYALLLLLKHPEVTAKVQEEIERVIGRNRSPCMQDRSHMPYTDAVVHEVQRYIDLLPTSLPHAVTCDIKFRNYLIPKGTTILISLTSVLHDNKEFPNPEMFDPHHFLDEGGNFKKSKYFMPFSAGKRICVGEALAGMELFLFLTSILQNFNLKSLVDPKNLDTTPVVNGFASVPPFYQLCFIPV
# Cytochrome P450 2D6 = Cytochrome P450 2D6 (Homo sapiens, UniProt P10635);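 note: CYP2D6 member of a cytochrome P450 panel assay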
# Cytochrome P450 2D6, sequence (P10635 whole entry): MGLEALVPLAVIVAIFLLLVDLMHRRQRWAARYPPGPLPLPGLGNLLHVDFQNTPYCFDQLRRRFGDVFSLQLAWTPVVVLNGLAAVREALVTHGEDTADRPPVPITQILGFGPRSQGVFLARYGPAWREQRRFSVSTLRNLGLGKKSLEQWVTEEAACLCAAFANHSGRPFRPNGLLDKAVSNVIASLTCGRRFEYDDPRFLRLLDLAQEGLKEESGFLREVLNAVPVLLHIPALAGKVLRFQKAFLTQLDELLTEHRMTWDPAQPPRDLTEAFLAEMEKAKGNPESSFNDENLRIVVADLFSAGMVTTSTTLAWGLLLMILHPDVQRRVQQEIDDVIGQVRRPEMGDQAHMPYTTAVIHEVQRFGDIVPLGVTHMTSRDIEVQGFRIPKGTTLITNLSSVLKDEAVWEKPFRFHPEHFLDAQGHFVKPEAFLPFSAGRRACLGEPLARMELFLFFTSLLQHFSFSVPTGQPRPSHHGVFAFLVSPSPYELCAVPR
# [11] = A cytotoxicity screen of small molecule inhibitors of the PhoP region in Salmonella typhi identified in the primary screen. [Related pubchem assays: 1850, 1864, 1985 ]; type: functional
# [12] = target: T3, Heat shock factor protein 1 (Mus musculus, UniProt P38532); experiment: inhibition of MG132-induced HSE-luciferase signal, confirmation, cell-based, NIH3T3, luminescence, dose retest (AID 2382); type: functional;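 note: NIH3T3 fibroblasts with HSF1-driven luciferase reporter stressed by proteasome inhibitor MG132; luminescence from HSF1-driven luciferase expression after 8 hours of MG132 stress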
# T3 sequence (P38532 whole entry): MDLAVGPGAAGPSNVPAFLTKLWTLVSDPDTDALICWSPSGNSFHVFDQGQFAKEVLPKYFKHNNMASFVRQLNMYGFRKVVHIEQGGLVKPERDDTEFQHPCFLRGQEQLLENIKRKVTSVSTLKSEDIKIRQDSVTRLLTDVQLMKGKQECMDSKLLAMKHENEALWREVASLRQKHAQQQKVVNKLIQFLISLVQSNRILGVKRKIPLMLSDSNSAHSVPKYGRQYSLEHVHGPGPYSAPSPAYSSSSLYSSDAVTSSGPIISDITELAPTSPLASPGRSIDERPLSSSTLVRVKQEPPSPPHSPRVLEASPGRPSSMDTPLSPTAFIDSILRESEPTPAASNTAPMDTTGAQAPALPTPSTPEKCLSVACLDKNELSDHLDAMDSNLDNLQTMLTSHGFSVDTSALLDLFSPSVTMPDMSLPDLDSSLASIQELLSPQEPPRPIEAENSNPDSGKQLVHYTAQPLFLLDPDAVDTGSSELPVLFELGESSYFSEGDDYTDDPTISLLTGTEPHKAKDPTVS
structure (smiles),measurement,setting,value
Cn1cnc(C(=O)N2CCc3ccccc3C2)c1C(=O)N1CCc2ccccc2C1,IC50,[1],4.36 µM (active)
Cc1nnc(SCC(=O)Nc2nsc(-c3ccc(Cl)cc3)n2)s1,IC50,[1],15.2 µM (active)
Cc1ccc2[nH]c(O)c(N=NC(=O)c3ccc(NS(=O)(=O)c4cccs4)cc3)c2c1,EC50,[2],0.429 µM (active)
same,EC50,Streptokinase A,> 150 µM (not active)
same,EC50,Streptococcus,16.3 µM (active)
same,IC50,[1],11.5 µM (active)
Cc1ccc(N2C(=O)c3cccc4c([N+](=O)[O-])ccc(c34)C2=O)c2cccnc12,EC50,BJ [3],2.21 µM (inconclusive)
same,EC50,BJ [4],26.5 µM (inconclusive)
same,EC50,BJ [5],3.88 µM (inconclusive)
same,EC50,[6],5.37 µM (inconclusive)
same,EC50,BJ [7],0.782 µM (active)
same,AC50,[8],5.68 µM (active)
same,AC50,[9],29.5 µM (active)
Cc1noc(C)c1COc1cccc(C(=O)OCC(=O)N2CC(=O)Nc3ccccc32)c1,IC50,[10],> 80 µM (inactive)
COc1ccc(/C=C/C(=O)Nc2cc(C(F)(F)F)ccc2Cl)cc1,AC50,Cytochrome P450 2C19,0.00631 µM (inconclusive)
same,AC50,Cytochrome P450 3A4,10 µM (inconclusive)
same,AC50,Cytochrome P450 2C9,inconclusive
N#Cc1ccccc1S(=O)(=O)N1CCN(C(=O)c2cc3c(s2)CCC3)CC1,IC50,[1],5.88 µM (active)
COc1ccccc1N1CCN(C(=O)c2ccc(-c3ccc(Cl)cc3)o2)CC1,IC50,[10],72.7 µM (inactive)
COc1ccc(OC)c(NC(=O)CSc2sc3c(O)cc(=O)[nH]c3c2C#N)c1,IC50,[1],5.22 µM (active)
Cc1ccc(SCc2ccc(C(=O)Nc3cc([N+](=O)[O-])ccc3C)cc2)cc1,AC50,Cytochrome P450 2D6,3.16 µM (inconclusive)
same,AC50,Cytochrome P450 3A4,8.91 µM (inconclusive)
same,AC50,Cytochrome P450 2C9,inconclusive
c1ccc(-c2nc3ccccc3[nH]2)cc1,EC50,[11],> 50 µM (active)
same,EC50,[12],> 195 µM (not active)
O=C1C2C3C=CC(CC3)C2C(=O)N1/N=C/c1ccc(O)cc1 (stereo unspecified),EC50,[11],> 50 µM (active)
